Like-named read-outs stand apart in the source and are kept apart here. Each block holds one molecule with its values, some of them ahead of it.
Assays:
[1] = UV absorbance, molar absorptivity coefficients (ε) of the synthesized compounds; type: physicochemical
Description: The synthesized compounds 4c, 5, 6, 9, 10, 13a, 13b, 14, 20, 21, and 23, were analysed for their UV absorbances and their molar absorptivity coefficients (e) were determined.

[2] = in L mol-1 cm-1, cited from earlier work

Compound: CCCCCCCCCCCCCCCc1ccc(-c2nnc(-c3ccc(OC)c(OC)c3)o2)c(O)c1 [Compound 23, 2-[5-(3,4-Dimethoxyphenyl)-1,3,4-oxadiazol-2-yl]-5-pentadecylphenol]
- experimental ε value (molar absorptivity coefficient) ([1]; at 293 nm): 3,373 L mol^−1 cm^−1
- experimental ε value (molar absorptivity coefficient) ([1]; at 326 nm): 6,367 L mol^−1 cm^−1

Compound: COc1ccc(C(=O)c2ccccc2)c(O)c1 [oxybenzone]
- experimental molar absorption coefficient ([2]; at 287 nm): 15,150

Compound: CCCCCCCCCCCCCCCc1cc(O)c2c(=O)c3c(O)cccc3oc2c1 [Compound 14, 1,8-Dihydroxy-3-pentadecyl-9H-xanthen-9-one]
- ε value (molar absorptivity coefficient) ([1]; at 254 nm): 23800 L/mol/cm

Compound: CCCCCCCCCCCCCCCc1cccc(O)c1C(=O)c1cc(OC)c(OC)cc1O [Compound 6, (2-Pentadecyl-6-hydroxyphenyl)(2-hydroxy-4,5-dimethoxyphenyl)methanone]
- ε value (molar absorptivity coefficient) ([1]; at 287 nm): 34,096 L mol^−1 cm^−1
- ε value (molar absorptivity coefficient) ([1]; at 358 nm): 25,014 L mol^−1 cm^−1

Compound: CCCCCCCCCCCCCCCc1ccc(-c2nc(-c3ccccc3)nc(-c3ccccc3)n2)c(O)c1 [Compound 20, 2-(4,6-Diphenyl-1,3,5-triazin-2-yl)-5-pentadecylphenol]
- ε value (molar absorptivity coefficient) ([1]; at 278 nm): 29,252 L mol^−1 cm^−1

Compound: CCCCCCCCCCCCCCCc1ccc(-c2nc(-c3ccc(CCCCCCCCCCCCCCC)cc3O)nc(-c3ccc(CCCCCCCCCCCCCCC)cc3O)n2)c(O)c1 [Compound 21, 6,6′,6″-(1,3,5-Triazine-2,4,6-triyl)tris(3-pentadecylphenol)]
- experimental ε value (molar absorptivity coefficient) ([1]; at 300 nm): 21,452 L mol^−1 cm^−1
- experimental ε value (molar absorptivity coefficient) ([1]; at 364 nm): 12500 L/mol/cm

Compound: CCCCC(CC)COC(=O)C=Cc1ccc(OC)cc1 (centres unmarked) [2-ethylhexyl 4-methoxycinnamate]
- experimental molar absorption coefficient ([2]; at 356 nm): 39,470

Compound: COc1ccc(C(=O)CC(=O)c2ccc(C(C)(C)C)cc2)cc1 [avobenzone]
- experimental molar absorption coefficient ([2]; at 310 nm): 31,670

Compound: CCCCCCCCCCCCCCCc1cccc(O)c1C(=O)c1cc(OC)ccc1O [Compound 5, (2-Hydroxy-5-methoxyphenyl)(2-hydroxy-6-pentadecylphenyl)methanone]
- ε value (molar absorptivity coefficient) ([1]; at 265 nm): 18,439 L mol^−1 cm^−1
- ε value (molar absorptivity coefficient) ([1]; at 374 nm): 8,785 L mol^−1 cm^−1

More lines, now with the values ahead:

- experimental ε value (molar absorptivity coefficient) ([1]; at 279 nm): 47,909 L mol^−1 cm^−1
Compound: CCCCCCCCCCCCCCCc1ccc(C(=O)c2ccccc2)c(O)c1 [Compound 9, (2-Hydroxy-4-pentadecylphenyl)(phenyl)methanone]

- experimental ε value (molar absorptivity coefficient) ([1]; at 314 nm): 39900 L/mol/cm
- experimental ε value (molar absorptivity coefficient) ([1]; at 345 nm): 45000 L/mol/cm
Compound: CCCCCCCCCCCCCCCc1ccc2c(=O)c(O)c(-c3ccccc3)oc2c1 [Compound 13b, 3-Hydroxy-7-pentadecyl-2-phenyl-4H-chromen-4-one]

- experimental ε value (molar absorptivity coefficient) ([1]; at 282 nm): 31700 L/mol/cm
Compound: CCCCCCCCCCCCCCCc1ccc(C(=O)c2ccccc2O)c(O)c1 [Compound 10, (2-hydroxy-4-pentadecylphenyl)(2-hydroxyphenyl)methanone]

- experimental ε value (molar absorptivity coefficient) ([1]; at 261 nm): 36,366 L mol^−1 cm^−1
- experimental ε value (molar absorptivity coefficient) ([1]; at 335 nm): 10,538 L mol^−1 cm^−1
Compound: CCCCCCCCCCCCCCCc1cccc(O)c1C(=O)c1ccccc1O [Compound 4c, [2-(Hydroxy)-6-pentadecylphenyl](2-hydroxyphenyl)methanone]

- experimental ε value (molar absorptivity coefficient) ([1]; at 314 nm): 20,403 L mol^−1 cm^−1
Compound: CCCCCCCCCCCCCCCc1ccc(C(=O)/C=C/c2ccccc2)c(O)c1 [Compound 13a, (E)-1-(2-hydroxy-4-pentadecylphenyl)-3-phenylprop-2-en-1-one]

Source: patent publication US12275711B2, “Compounds having excited state intramolecular proton transfer (ESIPT) character for use in treating and/or preventing sunburn and/or preventing U.V. damage” (UNIVERSITY OF THE WITWATERSRAND, JOHANNESBURG, priority 2019, dated 2025)
